{"source": "patent US20110039721A1", "about": "“METHOD FOR PREDICTION ABOUT CARCINOGENICITY OF SUBSTANCE IN RODENT” (Chemicals Evaluation and Research Institute, priority 2007, published 2011)", "key": {"[1]": {"tested_on": "mRNA expressed from the genes (A) to (D) in rat liver", "experiment": "Behavior of genes (mRNA expression level, oligo-DNA microarray) in rat liver after 28-day oral administration", "type": "in vivo", "details": "mRNA vs vehicle control group", "in_short": "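Groups of four male F344 SPF rats aged 5 weeks are gavaged once a day for 28 days with test chemical in solvent or with solvent alone at equal volume. Total RNA comes from liver taken on day 28. Fold change of 1.5 or 1/1.5 versus control, directionally consistent, defines significance.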"}, "liver": {"tested_on": "liver", "details": "classification of the substance (Cr+/Cr−); cited from earlier work"}, "[2]": {"details": "classification of the substance (M+/M−); cited from earlier work"}, "rodent": {"tested_on": "rodent", "details": "classification of the substance (C+/C−); cited from earlier work"}, "[3]": {"details": "gene group (A), Unigene No. Rn.167075"}, "[4]": {"details": "gene group (C), Unigene No. Rn.120914"}}}
{"compound": "ClC(Cl)=C(Cl)Cl", "note": "[TS066, Tetrachloroethylene]", "values": [{"measurement": "Behavior of gene caused by administration of chemical substance, Gene No. 4846", "setting": "[1]; gene group (A), Unigene No. Rn.144554", "value": "−"}, {"measurement": "Behavior of gene caused by administration of chemical substance, Gene No. 2026", "setting": "[1]; [3]", "value": "−"}, {"measurement": "Behavior of gene caused by administration of chemical substance, Gene No. 4218", "setting": "[1]; [3]", "value": "−"}, {"measurement": "Behavior of gene caused by administration of chemical substance, Gene No. 6182", "setting": "[1]; gene group (A), Unigene No. Rn.5834", "value": "+"}, {"measurement": "Behavior of gene caused by administration of chemical substance, Gene No. 5600", "setting": "[1]; gene group (A), Unigene No. Rn.9836", "value": "−"}, {"measurement": "Behavior of gene caused by administration of chemical substance, Gene No. 1494", "setting": "[1]; gene group (B), Unigene No. Rn.1430", "value": "−"}, {"measurement": "Behavior of gene caused by administration of chemical substance, Gene No. 2045", "setting": "[1]; gene group (B), Unigene No. Rn.19329", "value": "+"}, {"measurement": "Behavior of gene caused by administration of chemical substance, Gene No. 2203", "setting": "[1]; gene group (B), Unigene No. Rn.21240", "value": "−"}, {"measurement": "Behavior of gene caused by administration of chemical substance, Gene No. 533", "setting": "[1]; gene group (C), Unigene No. Rn.106184", "value": "+"}, {"measurement": "Behavior of gene caused by administration of chemical substance, Gene No. 725", "setting": "[1]; gene group (C), Unigene No. Rn.108075", "value": "−"}, {"measurement": "Behavior of gene caused by administration of chemical substance, Gene No. 1163", "setting": "[1]; gene group (C), Unigene No. Rn.11766", "value": "−"}, {"measurement": "Behavior of gene caused by administration of chemical substance, Gene No. 4973", "setting": "[1]; gene group (C), Unigene No. Rn.118529", "value": "−"}, {"measurement": "Behavior of gene caused by administration of chemical substance, Gene No. 4095", "setting": "[1]; gene group (C), Unigene No. Rn.119024", "value": "−"}, {"measurement": "Behavior of gene caused by administration of chemical substance, Gene No. 1334", "setting": "[1]; [4]", "value": "−"}, {"measurement": "Behavior of gene caused by administration of chemical substance, Gene No. 6620", "setting": "[1]; [4]", "value": "−"}, {"measurement": "Behavior of gene caused by administration of chemical substance, Gene No. 6303", "setting": "[1]; gene group (C), Unigene No. Rn.123063", "value": "−"}, {"measurement": "Behavior of gene caused by administration of chemical substance, Gene No. 5878", "setting": "[1]; gene group (C), Unigene No. Rn.143213", "value": "−"}, {"measurement": "Behavior of gene caused by administration of chemical substance, Gene No. 1131", "setting": "[1]; gene group (C), Unigene No. Rn.144946", "value": "−"}, {"measurement": "Behavior of gene caused by administration of chemical substance, Gene No. 1562", "setting": "[1]; gene group (C), Unigene No. Rn.14744", "value": "−"}, {"measurement": "Behavior of gene caused by administration of chemical substance, Gene No. 1741", "setting": "[1]; gene group (C), Unigene No. Rn.1647", "value": "−"}, {"measurement": "Behavior of gene caused by administration of chemical substance, Gene No. 893", "setting": "[1]; gene group (C), Unigene No. Rn.164817", "value": "−"}, {"measurement": "Behavior of gene caused by administration of chemical substance, Gene No. 6026", "setting": "[1]; gene group (C), Unigene No. Rn.167685", "value": "−"}, {"measurement": "Behavior of gene caused by administration of chemical substance, Gene No. 154", "setting": "[1]; gene group (C), Unigene No. Rn.185941", "value": "−"}, {"measurement": "Behavior of gene caused by administration of chemical substance, Gene No. 1993", "setting": "[1]; gene group (C), Unigene No. Rn.18728", "value": "−"}, {"measurement": "Behavior of gene caused by administration of chemical substance, Gene No. 813", "setting": "[1]; gene group (C), Unigene No. Rn.201760", "value": "−"}, {"measurement": "Behavior of gene caused by administration of chemical substance, Gene No. 2494", "setting": "[1]; gene group (C), Unigene No. Rn.23969", "value": "−"}, {"measurement": "Behavior of gene caused by administration of chemical substance, Gene No. 2546", "setting": "[1]; gene group (C), Unigene No. Rn.24561", "value": "−"}, {"measurement": "Behavior of gene caused by administration of chemical substance, Gene No. 3776", "setting": "[1]; gene group (C), Unigene No. Rn.43232", "value": "−"}, {"measurement": "Behavior of gene caused by administration of chemical substance, Gene No. 3929", "setting": "[1]; gene group (C), Unigene No. Rn.4620", "value": "−"}, {"measurement": "Behavior of gene caused by administration of chemical substance, Gene No. 1119", "setting": "[1]; gene group (C), Unigene No. Rn.9757", "value": "−"}, {"measurement": "Behavior of gene caused by administration of chemical substance, Gene No. 6742", "setting": "[1]; gene group (C), Unigene No. Rn.9779", "value": "−"}, {"measurement": "Behavior of gene caused by administration of chemical substance, Gene No. 5634", "setting": "[1]; gene group (C), Unigene No. Rn.9862", "value": "−"}, {"measurement": "Behavior of gene caused by administration of chemical substance, Gene No. 5726", "setting": "[1]; gene group (D), Unigene No. Rn.9939", "value": "−"}, {"measurement": "Liver carcinogenicity", "setting": "liver", "value": "Cr−"}, {"measurement": "Mutagenicity by Ames test", "setting": "[2]", "value": "M−"}, {"measurement": "Carcinogenicity", "setting": "rodent", "value": "C+"}]}
